ChEMBL document CHEMBL4418478, “2,4,5-trisubstituted thiazole compounds,preparation methods,pharmaceutical compositions and medical uses thereof” (2016)

The molecules below were run against Phospholipid transfer protein (Homo sapiens) (UniProt P55058) (assay: Inhibition of PLTP in plasma (unknown origin) at 150 uM using liver phospholipid, phospholipids liposome and HDL and TSE incubated for 1 hr relative to control).
Chain of Phospholipid transfer protein (Homo sapiens) (P55058 whole entry): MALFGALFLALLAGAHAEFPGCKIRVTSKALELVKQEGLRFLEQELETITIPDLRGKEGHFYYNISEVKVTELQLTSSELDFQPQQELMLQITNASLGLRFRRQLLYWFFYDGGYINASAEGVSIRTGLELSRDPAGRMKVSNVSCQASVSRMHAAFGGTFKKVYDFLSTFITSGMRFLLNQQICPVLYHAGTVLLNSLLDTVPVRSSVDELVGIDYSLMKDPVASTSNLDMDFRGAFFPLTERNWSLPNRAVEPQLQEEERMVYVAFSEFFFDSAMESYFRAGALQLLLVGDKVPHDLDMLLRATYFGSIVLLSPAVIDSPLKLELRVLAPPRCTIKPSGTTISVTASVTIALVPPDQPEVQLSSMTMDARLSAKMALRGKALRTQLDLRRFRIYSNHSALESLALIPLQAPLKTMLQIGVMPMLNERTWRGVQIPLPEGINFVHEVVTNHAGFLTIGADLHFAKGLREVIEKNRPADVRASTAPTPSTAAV

inhibition, 0%:
COc1ccc(-c2nc(N)sc2CC2CCCCC2)cc1
COc1ccc(C(=O)Nc2nc(-c3ccc(O)cc3)c(Cc3ccccc3)s2)cc1
O=C(Nc1nc(-c2ccc(O)cc2)c(Cc2ccccc2)s1)c1ccc(Cl)cc1
